Experimental data published in patent publication US20080194611A1, “Modulation of Cell Barrier Dysfunction” (priority 2005, published 2008).

Tests used:
[1] = test system: pyocyanin (PCN) production in P. aeruginosa; assay type: cell-based, Pseudomonas aeruginosa
P. aeruginosa = assay type: cell-based, Pseudomonas aeruginosa
[2] = test system: PA-I lectin/adhesin expression in P. aeruginosa PA27853 and PAO1
P. aeruginosa PA27853 = assay type: in vivo, mice; details: slow release morphine pellets; daily 1×10^8 cfu/ml PA27853
[3] = test system: Human pulmonary microvascular endothelial cell; assay type: cell-based
[4] = test system: membrane protein fractions of P. aeruginosa; experiment: Binding of morphine to P. aeruginosa membrane protein; parameters: species or system Pseudomonas aeruginosa
[5] = intravenously applied; cited from earlier work
S1P3 receptor = experiment: Tyrosine phosphorylation (transactivation) of the S1P3 receptor; assay type: cell-based, Human
[6] = test system: PA-I lectin/adhesin expression in P. aeruginosa 27853/PLL-EGFP
[7] = in vivo; cited from earlier work
[8] = cited from earlier work
P. aeruginosa biofilm = assay type: cell-based, Pseudomonas aeruginosa
MDCK cells = assay type: cell-based
Caco-2 cell monolayers = experiment: Barrier dysregulation of Caco-2 monolayers by PA27853 in the presence of IFN-γ; assay type: cell-based, Human; details: after five hours of incubation
Procedure: In addition, strains were exposed to apical media from Caco-2 cells basolaterally exposed to single and combinations of the various epithelial-derived cytokines. […] Media from Caco-2 cells exposed to various combinations of these cytokines had no effect on PA-I expression. […] Using both ELISA, immunofluorescence microscopy, and flow cytometry, the binding characteristics of IFNγ were determined for both whole bacteria and membrane fractions of P. aeruginosa. […] These effects were also observed with strain PAO1. […] It has been difficult to immunoprecipitate a significant quantity of this protein from PA27853, but it has been determined that this protein can also be immunoprecipitated from E. coli. Next, IFN-γ binding specificity, to whole bacterial cells, was determined, using reiterative binding studies in the presence of various gram-negative bacterial strains, including P. aeruginosa. […] Finally, in order to determine if PA-I was functionally expressed in […] in the presence IFN-γ, PA27853 was inoculated onto Caco-2 cell monolayers in the presence of IFN-γ and the effect on barrier dysregulating dynamics of PA27853 against this cell line were assessed to determine if IFN-γ shifted the dynamics. IFN-γ enhanced the barrier dysregulating effect of PA27853 against the intestinal epithelium after five hours of incubation by about 20%. […]

[9] = test system: P. aeruginosa whole cells and membrane fractions; experiment: ELISA / immunofluorescence binding of cytokines to P. aeruginosa cells and membrane fractions; parameters: species or system Pseudomonas aeruginosa
Procedure: IFN-γ direct binding to a protein on the surface of P. aeruginosa, in the course of virulence activation, was also investigated. ELISA binding assays were performed by first coating microtiter plates with P. aeruginosa (strain PAO1), then adding recombinant human IFN-γ (rH IFN-γ), followed by biotin-labeled anti-IFN-γ antibody. […] In order to localize the binding site of IFN-γ to P. aeruginosa (PAO1), equal protein concentrations of membrane and cytosol fractions of P. aeruginosa were prepared and coated onto ELISA microtiter plates.

[10] = molecular target: T1, outer membrane protein OprF (Pseudomonas aeruginosa, UniProt P13794); experiment: Binding of IFN-γ to purified OprF; details: dose-dependent
T1 sequence (P13794 25-350): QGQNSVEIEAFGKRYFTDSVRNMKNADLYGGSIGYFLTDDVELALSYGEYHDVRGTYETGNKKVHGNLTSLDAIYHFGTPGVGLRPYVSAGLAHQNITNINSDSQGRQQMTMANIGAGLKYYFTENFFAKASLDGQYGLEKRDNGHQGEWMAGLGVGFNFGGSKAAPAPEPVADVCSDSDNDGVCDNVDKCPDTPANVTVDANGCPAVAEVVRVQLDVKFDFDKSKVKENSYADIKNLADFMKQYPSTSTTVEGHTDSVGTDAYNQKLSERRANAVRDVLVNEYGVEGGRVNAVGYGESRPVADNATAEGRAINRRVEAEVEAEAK

[11] = test system: quorum sensing signaling system of P. aeruginosa PAO1; experiment: Quorum sensing activation in PAO1 (rhlI Northern blot, C4-HSL in supernatants); assay type: cell-based, Pseudomonas aeruginosa
[12] = test system: total endothelial cell tyrosine phosphatase activity; experiment: Total cellular tyrosine phosphatase activity assay; assay type: cell-based, Human
[13] = molecular target: T2, receptor tyrosine phosphatase mu (RPTPμ) (Homo sapiens, UniProt P28827); experiment: RPTPμ tyrosine phosphatase activity assay; assay type: biochemical; details: treatment of HPMVEC
T2 construct: Treated or untreated HPAEC lysates and/or immunoprecipitated RPTPμ were analyzed for tyrosine phosphatase activity; host or cells: human pulmonary endothelial cells (HPMVEC, 'HPAEC')

[14] = methadone maintenance patients; mean dose 0.1 mg/kg intravenously; cited from earlier work
[15] = cited from earlier work; remark: listed apart in the source

T2 sequence (P28827 21-1452): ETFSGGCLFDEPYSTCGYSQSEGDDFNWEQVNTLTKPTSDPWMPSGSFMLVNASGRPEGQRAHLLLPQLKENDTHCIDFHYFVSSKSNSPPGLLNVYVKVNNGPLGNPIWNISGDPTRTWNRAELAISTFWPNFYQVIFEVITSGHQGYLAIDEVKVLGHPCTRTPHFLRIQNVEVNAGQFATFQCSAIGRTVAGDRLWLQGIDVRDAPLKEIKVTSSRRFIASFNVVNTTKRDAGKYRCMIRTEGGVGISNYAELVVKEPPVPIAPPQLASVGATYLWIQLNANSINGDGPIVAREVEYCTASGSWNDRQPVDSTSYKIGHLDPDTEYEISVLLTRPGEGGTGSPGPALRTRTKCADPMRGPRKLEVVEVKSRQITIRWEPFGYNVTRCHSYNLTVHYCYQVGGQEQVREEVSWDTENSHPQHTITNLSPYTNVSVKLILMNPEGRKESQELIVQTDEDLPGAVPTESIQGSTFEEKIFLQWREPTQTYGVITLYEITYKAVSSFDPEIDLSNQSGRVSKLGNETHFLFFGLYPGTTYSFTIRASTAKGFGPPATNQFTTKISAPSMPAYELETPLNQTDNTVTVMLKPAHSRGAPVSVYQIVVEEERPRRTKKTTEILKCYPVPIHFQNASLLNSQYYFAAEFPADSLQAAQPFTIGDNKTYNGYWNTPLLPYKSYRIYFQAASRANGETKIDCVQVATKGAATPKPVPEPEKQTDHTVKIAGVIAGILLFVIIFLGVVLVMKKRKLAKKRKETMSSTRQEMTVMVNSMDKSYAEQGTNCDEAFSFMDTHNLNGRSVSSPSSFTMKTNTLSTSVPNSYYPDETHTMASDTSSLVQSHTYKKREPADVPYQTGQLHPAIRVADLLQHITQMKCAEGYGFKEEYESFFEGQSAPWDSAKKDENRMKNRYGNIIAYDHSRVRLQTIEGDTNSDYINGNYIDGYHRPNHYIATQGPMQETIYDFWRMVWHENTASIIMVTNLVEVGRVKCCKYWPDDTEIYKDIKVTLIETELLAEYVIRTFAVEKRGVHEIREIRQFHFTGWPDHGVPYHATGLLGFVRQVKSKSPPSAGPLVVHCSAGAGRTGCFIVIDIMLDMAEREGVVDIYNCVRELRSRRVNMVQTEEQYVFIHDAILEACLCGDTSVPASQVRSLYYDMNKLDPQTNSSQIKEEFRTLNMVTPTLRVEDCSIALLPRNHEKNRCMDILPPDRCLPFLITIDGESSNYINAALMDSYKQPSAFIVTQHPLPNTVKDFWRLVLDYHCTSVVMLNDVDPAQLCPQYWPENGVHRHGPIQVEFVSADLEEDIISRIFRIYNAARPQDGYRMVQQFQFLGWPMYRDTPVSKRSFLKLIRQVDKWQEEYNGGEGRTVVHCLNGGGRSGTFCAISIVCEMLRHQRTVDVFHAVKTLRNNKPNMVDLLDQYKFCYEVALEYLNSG

CCCC(=O)N[C@H]1CCOC1=O [C4-HSL, C4-homoserine lactone]
PCN production in seven additional mvfR mutants [1]: none of these mutants produced PCN
PCN production in ΔGacA and ΔMvfR [1]: unable to restore PCN production
PCN production in ΔGacA/gacA [1]: decreased, albeit minimally
PCN production in ΔMvfR/mvfR [1]: further increased the already elevated PCN production
PCN production versus cell density [1]: shift in the production of PCN at lower cell densities
PCN response of MvfR mutant 121-332 [1]: did not respond to U-50,488 or C4-HSL
PCN response of MvfR mutants 1-292, 1-291, 1-283 [1]: did not respond to U-50,488 and C4-HSL
PCN response of MvfR mutants 1-299 and 1-293 [1]: responded to U-50,488 and C4-HSL with enhanced PCN production
dynamic tracking of PCN production in ΔMvfR/mvfR [1]: demonstrated a shift in PCN production at lower cell densities
dynamics of PCN production in ΔGacA/gacA [1]: had no effect on the dynamics of PCN production
effect on bacterial growth (P. aeruginosa): Neither compound had an effect on bacterial growth
PA-I expression [2]: induced PA-I expression
increase in PA-I expression [2]: ~16 fold

CN1CC[C@]23c4c5ccc(O)c4O[C@H]2[C@@H](O)C=C[C@H]3[C@H]1C5 [morphine]
mice developing severe sepsis (P. aeruginosa PA27853): 4/4
mortality (P. aeruginosa PA27853): significant mortality
effect of agonist alone on endothelial cell barrier function (TER) [3]: induced endothelial cell barrier disruption in a dose-dependent manner
binding to membrane protein fractions [4]: binds to membrane protein fractions
increase in PA-I expression [2]: four-fold
response to express PA-I [2]: induce a robust response
concentration accumulated at tissue sites such as the intestinal mucosa [5]: ≤ 100 µM

C=CCN1CC[C@]23c4c5ccc(O)c4O[C@H]2C(=O)CC[C@@]3(O)[C@H]1C5 [naloxone]
effect on MS- and DAMGO-induced endothelial cell barrier disruption [3]: blocked
barrier protection with thrombin and LPS challenge ([3]; 0.1 μM): did not display the same endothelial cell barrier-protective effects as MNTX
effect on morphine- and DAMGO-induced S1P3 receptor transactivation (S1P3 receptor; pre-treatment): blocked the effects of morphine and DAMGO
effect on morphine-induced PA-I lectin/adhesin expression [6]: significantly attenuated
crossing of the blood-brain barrier [7]: crosses the blood-brain barrier easily
lipid solubility / polarity [8]: fairly lipid-soluble

C=CCN1C[C@H](C)N([C@H](c2ccc(C(=O)N(CC)CC)cc2)c2cccc(O)c2)C[C@H]1C [BW373U86]
biofilm production (P. aeruginosa biofilm): ~180 % of PA27853 induction
additional TEER decrease (MDCK cells): ~25%
PA-I expression judged by fluorescence of the GFP reporter strain [6]: greatest effect on PA-I expression
PA-I protein expression [2]: induced a response equal to C4-HSL
response to express PA-I [2]: induce a robust response

IFN-γ: human recombinant interferon gamma
pyocyanin production [1]: increased pyocyanin production
enhancement of barrier dysregulating effect of PA27853 (Caco-2 cell monolayers): about 20%
binding to whole bacterial cells ([9]; PA27853): high binding affinity
ELISA binding to whole fixed cells ([9]; PAO1): avidly bound to whole fixed cells of P. aeruginosa in a dose-dependent manner
bacterial cells that bound IFN-γ (immunofluorescent imaging) ([9]; PAO1): 73%±3.2%
binding to P. aeruginosa membrane fractions ([9]; PAO1 membranes, ELISA): preferentially bound to membrane fractions
binding to purified OprF [10]: directly binds
C4-HSL synthesis ([11]; 100 ng/ml IFN-γ): increased
rhlI gene transcription ([11]; Northern blot): induced rhl1 transcription
PA-I expression (fluorescence) [6]: significant increase in PA-1 expression
PA-I expression [2]: induced PA-I expression
PA-I expression, compound alone in media [2]: induced a direct effect on PA-I expression
PA-I mRNA and protein [2]: increased
PA-I protein expression, dose dependence [2]: dose dependent, with the greatest increase seen with 100 ng/ml
lecA (PA-I) mRNA by Northern blot [2]: induced lecA mRNA
response to express PA-I [2]: induce a robust response

C[N+]1(CC2CC2)CCC23c4c5ccc(O)c4OC2C(=O)CCC3(O)C1C5 (stereo not drawn) [MNTX, N-methylnaltrexone]
MNTX protection from thrombin- and LPS-induced disruption with mOP-R silenced (siRNA) [3]: little effect
MNTX protection with RPTPμ silenced (siRNA) [3]: inhibited the protective effects of MNTX
MNTX protection with S1P3 receptor silenced (siRNA) [3]: inhibited
dose dependence of barrier protective effects [3]: Decreasing the dose of MNTX below 0.1 μM attenuated its barrier protective effects
effect on LPS-induced endothelial cell barrier disruption [3]: attenuated endothelial cell barrier disruption
effect on MS- and DAMGO-induced endothelial cell barrier disruption [3]: blocked
effect on S1P barrier enhancement [3]: increased the sustained endothelial cell barrier-enhancing effect
effect on ionomycin-induced endothelial cell barrier disruption [3]: but not from the Ca^2+ ionophore, ionomycin
effect on thrombin-induced endothelial cell barrier disruption [3]: attenuated endothelial cell barrier disruption
Src tyrosine phosphorylation of isolated S1P3 receptor, in vitro (S1P3 receptor; RPTPμ from MNTX-treated (1 hour) endothelial cells): blocked Src tyrosine phosphorylation of the S1P3 receptor
effect on agonist-induced S1P3 receptor transactivation (S1P3 receptor; pre-treatment): completely blocked
total endothelial cell tyrosine phosphatase activity [12]: increased total endothelial cell tyrosine phosphatase activity
MNTX-mediated increase of total tyrosine phosphatase activity with RPTPμ silenced ([12]; siRNA): significantly attenuated
RPTPμ tyrosine phosphatase activity [13]: enhanced RPTPμ tyrosine phosphatase activity
effect on morphine-induced PA-I lectin/adhesin expression [6]: significantly attenuated
mean plasma levels [14]: 162 ng/mL
crossing of the blood-brain barrier [7]: does not cross the blood-brain barrier
lipid solubility / polarity [8]: greater polarity and lower lipid solubility

C[C@H]1CN(C[C@H](Cc2ccccc2)C(=O)NCC(=O)O)CCC1(C)c1cccc(O)c1 (single isomer, unassigned; (+)) [formula (II), (+)-Z-NHCH2 C(O)OH]
solubility in water [15]: low solubility in water except at low or high pH conditions
